{"source": "PubChem BioAssay AID2060484", "about": "(Molecular Pharmacology Branch, DTP, NCI, 2025)", "test_system": "SUM149PT spheroids with HUVEC/MSC, viability", "experiment": "Anticancer human tumor SUM149PT cell line growth inhibition [GQUAD];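 for all read-outs here: spheroids exposed to drugs for seven days before readout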;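 for viability, T/C: percent viability relative to DMSO vehicle control taken as 100%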", "conditions": "for IC50: curve of first compound; for viability, T/C: stronger effect = lower value", "method_in_brief": "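Multi-cell-type spheroids of tumor cells with HUVEC and mesenchymal stem cells, treated with drug combinations. Concentrations descend in half-log steps from near clinical Cmax, or from 10 microM where Cmax is unknown; viability read-out.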", "key": {"[1]": {"conditions": "second compound 0.0316 µM, first compound 0.0316 µM"}, "[2]": {"conditions": "second compound 0.0316 µM, first compound 0.1 µM"}, "[3]": {"conditions": "second compound 0.0316 µM, first compound 0.316 µM"}, "[4]": {"conditions": "second compound 0.0316 µM, first compound 1 µM"}, "[5]": {"conditions": "second compound 0.0316 µM, first compound 3.16 µM"}, "[6]": {"conditions": "second compound 0.0316 µM, first compound 10 µM"}, "[7]": {"conditions": "second compound 0.1 µM, first compound 0.0316 µM"}, "[8]": {"conditions": "second compound 0.1 µM, first compound 0.1 µM"}, "[9]": {"conditions": "second compound 0.1 µM, first compound 0.316 µM"}, "[10]": {"conditions": "second compound 0.1 µM, first compound 1 µM"}, "[11]": {"conditions": "second compound 0.1 µM, first compound 3.16 µM"}, "[12]": {"conditions": "second compound 0.1 µM, first compound 10 µM"}, "[13]": {"conditions": "second compound 0.316 µM, first compound 0.0316 µM"}, "[14]": {"conditions": "second compound 0.316 µM, first compound 0.1 µM"}, "[15]": {"conditions": "second compound 0.316 µM, first compound 0.316 µM"}, "[16]": {"conditions": "second compound 0.316 µM, first compound 1 µM"}, "[17]": {"conditions": "second compound 0.316 µM, first compound 3.16 µM"}, "[18]": {"conditions": "second compound 0.316 µM, first compound 10 µM"}, "[19]": {"conditions": "second compound 1 µM, first compound 0.0316 µM"}, "[20]": {"conditions": "second compound 1 µM, first compound 0.1 µM"}, "[21]": {"conditions": "second compound 1 µM, first compound 0.316 µM"}, "[22]": {"conditions": "second compound 1 µM, first compound 1 µM"}, "[23]": {"conditions": "second compound 1 µM, first compound 3.16 µM"}, "[24]": {"conditions": "second compound 1 µM, first compound 10 µM"}, "[25]": {"conditions": "second compound 3.16 µM, first compound 0.0316 µM"}, "[26]": {"conditions": "second compound 3.16 µM, first compound 0.1 µM"}, "[27]": {"conditions": "second compound 3.16 µM, first compound 0.316 µM"}, "[28]": {"conditions": "second compound 3.16 µM, first compound 1 µM"}, "[29]": {"conditions": "second compound 3.16 µM, first compound 3.16 µM"}, "[30]": {"conditions": "second compound 3.16 µM, first compound 10 µM"}, "[31]": {"conditions": "second compound 10 µM, first compound 0.0316 µM"}, "[32]": {"conditions": "second compound 10 µM, first compound 0.1 µM"}, "[33]": {"conditions": "second compound 10 µM, first compound 0.316 µM"}, "[34]": {"conditions": "second compound 10 µM, first compound 1 µM"}, "[35]": {"conditions": "second compound 10 µM, first compound 3.16 µM"}, "[36]": {"conditions": "second compound 10 µM, first compound 10 µM"}}, "data": [{"smiles": "CC(C)(O)C1CCC(Nc2ccc3ncc(-c4cccc(C(F)(F)F)c4)n3n2)CC1", "note": "(centres undefined) + Cc1[nH]c2ccc(F)cc2c1-c1nc2c3cccnc3c3ncccc3c2[nH]1", "values": [{"measurement": "IC50", "setting": "second compound 0.0316 µM", "value": 5.92, "unit": "µM"}, {"measurement": "IC50", "setting": "second compound 0.1 µM", "value": "> 10", "unit": "µM"}, {"measurement": "IC50", "setting": "second compound 0.316 µM", "value": 3.81, "unit": "µM"}, {"measurement": "IC50", "setting": "second compound 1 µM", "value": 7.9, "unit": "µM"}, {"measurement": "IC50", "setting": "second compound 3.16 µM", "value": 2.36, "unit": "µM"}, {"measurement": "IC50", "setting": "second compound 10 µM", "value": 1.91, "unit": "µM"}, {"measurement": "viability, T/C", "setting": "[1]", "value": 103, "unit": "%"}, {"measurement": "viability, T/C", "setting": "[2]", "value": 96.5, "unit": "%"}, {"measurement": "viability, T/C", "setting": "[3]", "value": 80.2, "unit": "%"}, {"measurement": "viability, T/C", "setting": "[4]", "value": 63.9, "unit": "%"}, {"measurement": "viability, T/C", "setting": "[5]", "value": 44.6, "unit": "%"}, {"measurement": "viability, T/C", "setting": "[6]", "value": 53.3, "unit": "%"}, {"measurement": "viability, T/C", "setting": "[7]", "value": 90.9, "unit": "%"}, {"measurement": "viability, T/C", "setting": "[8]", "value": 90.4, "unit": "%"}, {"measurement": "viability, T/C", "setting": "[9]", "value": 84.2, "unit": "%"}, {"measurement": "viability, T/C", "setting": "[10]", "value": 67.4, "unit": "%"}, {"measurement": "viability, T/C", "setting": "[11]", "value": 51, "unit": "%"}, {"measurement": "viability, T/C", "setting": "[12]", "value": 55.9, "unit": "%"}, {"measurement": "viability, T/C", "setting": "[13]", "value": 105, "unit": "%"}, {"measurement": "viability, T/C", "setting": "[14]", "value": 97.7, "unit": "%"}, {"measurement": "viability, T/C", "setting": "[15]", "value": 85.5, "unit": "%"}, {"measurement": "viability, T/C", "setting": "[16]", "value": 68.8, "unit": "%"}, {"measurement": "viability, T/C", "setting": "[17]", "value": 43.3, "unit": "%"}, {"measurement": "viability, T/C", "setting": "[18]", "value": 51, "unit": "%"}, {"measurement": "viability, T/C", "setting": "[19]", "value": 97.4, "unit": "%"}, {"measurement": "viability, T/C", "setting": "[20]", "value": 96.4, "unit": "%"}, {"measurement": "viability, T/C", "setting": "[21]", "value": 89.2, "unit": "%"}, {"measurement": "viability, T/C", "setting": "[22]", "value": 68, "unit": "%"}, {"measurement": "viability, T/C", "setting": "[23]", "value": 47.4, "unit": "%"}, {"measurement": "viability, T/C", "setting": "[24]", "value": 52.9, "unit": "%"}, {"measurement": "viability, T/C", "setting": "[25]", "value": 95.5, "unit": "%"}, {"measurement": "viability, T/C", "setting": "[26]", "value": 81.5, "unit": "%"}, {"measurement": "viability, T/C", "setting": "[27]", "value": 85.4, "unit": "%"}, {"measurement": "viability, T/C", "setting": "[28]", "value": 70, "unit": "%"}, {"measurement": "viability, T/C", "setting": "[29]", "value": 40, "unit": "%"}, {"measurement": "viability, T/C", "setting": "[30]", "value": 46.3, "unit": "%"}, {"measurement": "viability, T/C", "setting": "[31]", "value": 99, "unit": "%"}, {"measurement": "viability, T/C", "setting": "[32]", "value": 87.5, "unit": "%"}, {"measurement": "viability, T/C", "setting": "[33]", "value": 79.7, "unit": "%"}, {"measurement": "viability, T/C", "setting": "[34]", "value": 59.9, "unit": "%"}, {"measurement": "viability, T/C", "setting": "[35]", "value": 38.5, "unit": "%"}, {"measurement": "viability, T/C", "setting": "[36]", "value": 43.1, "unit": "%"}]}, {"smiles": "CCCS(=O)(=O)Nc1ccc(F)c(C(=O)c2c[nH]c3ncc(-c4ccc(Cl)cc4)cc23)c1F", "note": "+ Cc1[nH]c2ccc(F)cc2c1-c1nc2c3cccnc3c3ncccc3c2[nH]1", "values": [{"measurement": "IC50", "setting": "second compound 0.0316 µM", "value": "> 10", "unit": "µM"}, {"measurement": "IC50", "setting": "second compound 0.1 µM", "value": "> 10", "unit": "µM"}, {"measurement": "IC50", "setting": "second compound 0.316 µM", "value": "> 10", "unit": "µM"}, {"measurement": "IC50", "setting": "second compound 1 µM", "value": 9.08, "unit": "µM"}, {"measurement": "IC50", "setting": "second compound 3.16 µM", "value": 8.19, "unit": "µM"}, {"measurement": "IC50", "setting": "second compound 10 µM", "value": 7.25, "unit": "µM"}, {"measurement": "viability, T/C", "setting": "[1]", "value": 107, "unit": "%"}, {"measurement": "viability, T/C", "setting": "[2]", "value": 97.7, "unit": "%"}, {"measurement": "viability, T/C", "setting": "[3]", "value": 109, "unit": "%"}, {"measurement": "viability, T/C", "setting": "[4]", "value": 101, "unit": "%"}, {"measurement": "viability, T/C", "setting": "[5]", "value": 74.7, "unit": "%"}, {"measurement": "viability, T/C", "setting": "[6]", "value": 53.3, "unit": "%"}, {"measurement": "viability, T/C", "setting": "[7]", "value": 102, "unit": "%"}, {"measurement": "viability, T/C", "setting": "[8]", "value": 105, "unit": "%"}, {"measurement": "viability, T/C", "setting": "[9]", "value": 102, "unit": "%"}, {"measurement": "viability, T/C", "setting": "[10]", "value": 99.8, "unit": "%"}, {"measurement": "viability, T/C", "setting": "[11]", "value": 82.6, "unit": "%"}, {"measurement": "viability, T/C", "setting": "[12]", "value": 54.9, "unit": "%"}, {"measurement": "viability, T/C", "setting": "[13]", "value": 110, "unit": "%"}, {"measurement": "viability, T/C", "setting": "[14]", "value": 104, "unit": "%"}, {"measurement": "viability, T/C", "setting": "[15]", "value": 105, "unit": "%"}, {"measurement": "viability, T/C", "setting": "[16]", "value": 102, "unit": "%"}, {"measurement": "viability, T/C", "setting": "[17]", "value": 78.9, "unit": "%"}, {"measurement": "viability, T/C", "setting": "[18]", "value": 51.2, "unit": "%"}, {"measurement": "viability, T/C", "setting": "[19]", "value": 103, "unit": "%"}, {"measurement": "viability, T/C", "setting": "[20]", "value": 107, "unit": "%"}, {"measurement": "viability, T/C", "setting": "[21]", "value": 105, "unit": "%"}, {"measurement": "viability, T/C", "setting": "[22]", "value": 105, "unit": "%"}, {"measurement": "viability, T/C", "setting": "[23]", "value": 79.6, "unit": "%"}, {"measurement": "viability, T/C", "setting": "[24]", "value": 47.3, "unit": "%"}, {"measurement": "viability, T/C", "setting": "[25]", "value": 98.3, "unit": "%"}, {"measurement": "viability, T/C", "setting": "[26]", "value": 92.7, "unit": "%"}, {"measurement": "viability, T/C", "setting": "[27]", "value": 102, "unit": "%"}, {"measurement": "viability, T/C", "setting": "[28]", "value": 109, "unit": "%"}, {"measurement": "viability, T/C", "setting": "[29]", "value": 71.3, "unit": "%"}, {"measurement": "viability, T/C", "setting": "[30]", "value": 45.6, "unit": "%"}, {"measurement": "viability, T/C", "setting": "[31]", "value": 98.1, "unit": "%"}, {"measurement": "viability, T/C", "setting": "[32]", "value": 104, "unit": "%"}, {"measurement": "viability, T/C", "setting": "[33]", "value": 102, "unit": "%"}, {"measurement": "viability, T/C", "setting": "[34]", "value": 105, "unit": "%"}, {"measurement": "viability, T/C", "setting": "[35]", "value": 74.6, "unit": "%"}, {"measurement": "viability, T/C", "setting": "[36]", "value": 40.4, "unit": "%"}]}]}
